Test results from ChEMBL document CHEMBL3352610, “Discovery of potent and selective GIRK1/2 modulators via 'molecular switches' within a series of 1-(3-cyclopropyl-1-phenyl-1H-pyrazol-5-yl)ureas” (Bioorg Med Chem Lett, 2014).
pEC50: −log10 of the molar value. Activity calls are given as the source filed them. The calls are words filed in the database; no cut-off is given here.

Columns and labels:
Kir3.1/Kir3.4 = biological target: T1, Kir3.1/Kir3.4 (Homo sapiens, UniProt P48544+P48549); assay: Activation of GIRK1/4 (unknown origin) by thallium-flux based assay; assay type: protein-complex assay
T1 sequence (P48549 whole entry): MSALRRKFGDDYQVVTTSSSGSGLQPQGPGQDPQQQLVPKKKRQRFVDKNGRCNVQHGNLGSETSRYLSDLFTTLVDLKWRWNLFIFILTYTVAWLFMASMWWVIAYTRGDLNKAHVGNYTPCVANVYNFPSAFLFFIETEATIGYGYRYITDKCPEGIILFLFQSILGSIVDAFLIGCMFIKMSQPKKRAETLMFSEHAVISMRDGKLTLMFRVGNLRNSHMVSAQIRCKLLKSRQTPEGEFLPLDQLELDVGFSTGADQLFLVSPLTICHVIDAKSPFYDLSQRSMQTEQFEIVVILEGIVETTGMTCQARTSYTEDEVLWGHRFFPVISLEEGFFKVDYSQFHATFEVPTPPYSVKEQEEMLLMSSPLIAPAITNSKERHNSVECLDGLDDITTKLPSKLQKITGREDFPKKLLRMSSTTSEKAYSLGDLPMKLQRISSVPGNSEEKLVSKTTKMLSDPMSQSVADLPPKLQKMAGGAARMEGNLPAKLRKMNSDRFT
T1 sequence (P48544 whole entry): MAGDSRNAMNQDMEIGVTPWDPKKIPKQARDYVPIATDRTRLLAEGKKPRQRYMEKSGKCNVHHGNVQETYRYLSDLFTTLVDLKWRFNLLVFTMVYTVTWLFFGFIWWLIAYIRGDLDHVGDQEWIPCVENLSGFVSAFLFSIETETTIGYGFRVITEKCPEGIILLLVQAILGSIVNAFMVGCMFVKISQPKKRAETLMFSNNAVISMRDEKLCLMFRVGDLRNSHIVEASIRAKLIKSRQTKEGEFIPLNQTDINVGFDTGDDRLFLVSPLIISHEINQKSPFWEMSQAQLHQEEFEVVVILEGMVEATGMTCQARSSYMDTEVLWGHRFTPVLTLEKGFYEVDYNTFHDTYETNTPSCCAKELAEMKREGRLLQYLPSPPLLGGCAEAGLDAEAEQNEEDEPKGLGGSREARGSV

[1] = biological target: Kir3.1/Kir3.4 (Homo sapiens) (UniProt P48549+P48544); assay: Activation of GIRK1/4 (unknown origin) by thallium-flux based assay relative to ML297; assay type: protein-complex assay
Kir3.1/Kir3.2 = biological target: T2, Kir3.1/Kir3.2 (Homo sapiens, UniProt P48051+P48549); assay: Activation of GIRK1/2 (unknown origin) by thallium-flux based assay; assay type: protein-complex assay
T2 sequence (P48549 whole entry): T1 sequence (P48549 whole entry)
T2 sequence (P48051 whole entry): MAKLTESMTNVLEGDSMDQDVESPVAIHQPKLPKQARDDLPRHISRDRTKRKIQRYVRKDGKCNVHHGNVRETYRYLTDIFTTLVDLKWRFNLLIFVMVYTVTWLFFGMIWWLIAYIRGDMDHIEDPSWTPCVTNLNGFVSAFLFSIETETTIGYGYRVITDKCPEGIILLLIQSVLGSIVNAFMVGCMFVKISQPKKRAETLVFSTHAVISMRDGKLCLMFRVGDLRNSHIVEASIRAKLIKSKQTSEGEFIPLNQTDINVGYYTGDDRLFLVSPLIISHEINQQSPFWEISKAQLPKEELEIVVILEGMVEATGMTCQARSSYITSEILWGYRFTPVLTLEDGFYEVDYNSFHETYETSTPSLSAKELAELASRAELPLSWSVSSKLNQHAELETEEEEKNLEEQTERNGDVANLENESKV

[2] = biological target: Kir3.1/Kir3.2 (Homo sapiens) (UniProt P48549+P48051); assay: Activation of GIRK1/2 (unknown origin) by thallium-flux based assay relative to ML297; assay type: protein-complex assay
[3] = Stability in rat microsomes assessed as compound remaining measured after 90 mins; assay type: ADME, Microsome; details: read-out: Stability
[4] = biological target: Kir3.2/Kir3.3 (Homo sapiens) (UniProt P48051+Q92806); assay: Modulation of GIRK2/3 (unknown origin) by thallium-flux based assay; assay type: protein-complex assay

Row | SMILES | pEC50 (Kir3.1/Kir3.4) | Efficacy [1] [%] | pEC50 (Kir3.1/Kir3.2) | Efficacy [2] [%] | remaining at […] [3] [%] | Activity [4]
1 | CC1CC1c1cc(NC(=O)Nc2ccc(F)c(F)c2)n(CC(F)(F)F)n1 (stereo unspecified) | 5.31 | 112 | 5.31 | 100 | – | –
2 | CC1CC1c1cc(NC(=O)Nc2ccc(C(F)(F)F)cc2)n(CC(F)(F)F)n1 (stereo unspecified) | 5.70 | 100 | 6.51 | 70 | – | –
3 | Cc1ccc(NC(=O)Nc2cc(C3CC3C)nn2CC(F)(F)F)cc1 (stereo unspecified) | 5.64 | 100 | 6.57 | 67 | – | –
4 | Cc1cc(NC(=O)Nc2ccc(F)c(F)c2)n(-c2ccccc2)n1 | – | – | – | – | 45 | inactive

Now from value to molecule:

Row | pEC50 (Kir3.1/Kir3.4) | Efficacy [1] [%] | pEC50 (Kir3.1/Kir3.2) | Efficacy [2] [%] | remaining at […] [3] [%] | Activity [4] | SMILES
5 | 5.74 | 100 | 6.82 | 66 | – | – | CC1CC1c1cc(NC(=O)Nc2ccc(Cl)cc2)n(CC(F)(F)F)n1 (stereo unspecified)
6 | 6.00 | 100 | 6.51 | 101 | – | – | CC1CC1c1cc(NC(=O)Nc2cccc(F)c2)n(CC(F)(F)F)n1 (stereo unspecified)
7 | 5.92 | 35 | 6.15 | 81 | – | – | Cc1cc(NC(=O)Nc2cc(C3CC3C)nn2CC(F)(F)F)ccc1F (stereo unspecified)
